Numbering of substitutions follows the chain as printed.
Tests used:
c-Abl (His-cAbl) = target: T1, c-Abl (His-cAbl) (Homo sapiens, UniProt P00519); experiment: in vitro enzyme assay, wild-type Abl catalysed phosphorylation; assay type: biochemical; conditions: 16 nM His-cAbl, 10 μM ATP, 1 hour at 30° C.; read-out: IC50, inhibition of wild-type Abl catalysed phosphorylation
T1 construct: The His-tagged kinase domain of Abl is cloned and expressed; His tag; made in house; host or cells: baculovirus/Sf9
T1 sequence (P00519 242-493 limits assumed): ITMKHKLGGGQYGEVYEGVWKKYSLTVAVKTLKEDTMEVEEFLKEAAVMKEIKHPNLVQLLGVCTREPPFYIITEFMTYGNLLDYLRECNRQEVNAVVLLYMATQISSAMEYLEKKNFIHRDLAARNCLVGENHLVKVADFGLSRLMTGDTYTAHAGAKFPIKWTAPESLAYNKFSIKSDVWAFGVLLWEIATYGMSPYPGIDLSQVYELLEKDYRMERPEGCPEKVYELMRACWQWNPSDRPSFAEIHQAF
Experimental: (§1) Test for activity against wild-type and mutant Abl protein tyrosine kinase:
(§2) The test, an in vitro enzyme assay, is conducted as a filter binding assay as follows: The His-tagged kinase domain of Abl is cloned and expressed in the baculovirus/Sf9 system as described by Bhat et al., J. Biol. Chem. 1997; 272:16170-16175. A protein of 37 kD (Abl kinase) is purified by a two-step procedure over a Cobalt metal chelate column followed by an anion exchange column with a yield of 1-2 mg/L of Sf9 cells. The purity of the Abl kinase is >90% as judged by SDS-PAGE after Coomassie blue staining.
(§3) Based on the optimized assay conditions for the individual kinases a specific assay set-up was chosen. The assays were prepared and incubated on a liquid handling robot system using 384-well plates. To the assay plates containing 50 nL compound or control solutions, 4.5 μL of solution A consisting of the peptide substrate and ATP in assay buffer were added. The reactions were initiated by adding 4.5 μL of solution B consisting of the respective kinase in assay buffer. The reactions were incubated for 1 hour at 30° C. in a final reaction volume of 9.05 μL. Based on a generic assay buffer (50 mM HEPES pH7.5, 1 mM DTT, 0.02% Tween20, 0.02% BSA), following components were added depending on the chosen kinase: • c-Abl: 16 nM His-cAbl, 5 μM peptide substrate (FITC-Ahx-EAIYAAPFAKKK-CONH2), 10 mM MgCl2, 10 μM ATP • c-Abl-T315I: 2.4 nM His-cAbl-T315I, 5 μM peptide substrate (FITC-Ahx-EAIYAAPFAKKK-CONH2), 10 mM MgCl2, 10 μM ATP
(§4) After incubation, the kinase reactions were stopped by the addition of 16 μL of stop solution (100 mM HEPES, 5% DMSO, 0.1% Coating reagent, 10 mM EDTA, 0.015% Brij 35). Subsequently, the assay plates were transferred to a Caliper LabChip3000 reader and the unphosphorylated substrate and the phosphorylated product were separated and quantitated in a microfluidic chip.

[1] = target: T2, c-Abl-T315I (His-cAbl-T315I) (Homo sapiens, UniProt P00519, T315I); experiment: in vitro enzyme assay, T315I mutant Abl catalysed phosphorylation; assay type: biochemical; conditions: 2.4 nM His-cAbl-T315I, 10 μM ATP, 1 hour at 30° C.; read-out: IC50, inhibition of T315I mutant Abl catalysed phosphorylation
T2 construct: The His-tagged kinase domain of Abl is cloned and expressed; His tag; made in house; host or cells: baculovirus/Sf9
T2 sequence (P00519 242-493 T315I limits assumed): T1 sequence (P00519 242-493 limits assumed) with T74I
Experimental: as §1, §2, §3, §4

Bcr-Abl = Bcr-Abl (Homo sapiens, UniProt P00519); experiment: Bcr-Abl phosphorylation capture ELISA in 32D-Bcr-Abl cells; assay type: cell-based, murine; conditions: 90 min at 37° C., read-out: IC50, reduction of Bcr-Abl phosphorylation
Description: 32D cl3 cells are obtained from the American Type Culture Collection (ATCC CRL11346) and Ba/F3 cells are obtained from the German Collection of Microorganisms and Cell Cultures (DSMZ, Braunschweig and DSMZ No. ACC 300) Palacios et al., Nature, 1984; 309:126 and Palacios et al., Cell, 1985:41:72.
Oncogene 1996; 12: 839-46; and Okuda K, Golub T R, Gilliland D G, Griffin J D. p210BCR-ABL, p190BCR-ABL, and TEL/ABL activate similar signal transduction pathways in hematopoietic cell lines. Oncogene 1996; 13:1147-52.)
The cells express the fusion Bcr-Abl protein with a constitutively active Abl kinase and proliferate growth factor independent. The cells are expanded in RPMI 1640 (AMIMED), 10% fetal calf serum (FCS), 2 mM glutamine (Gibco) (“complete medium”), and a working stock is prepared by freezing aliquots of 2×10^6 cells per vial in freezing medium (95% FCS, 5% DMSO (SIGMA)). After thawing, the cells are used during maximally 10-12 passages for the experiments. The antibody anti-Abl SH3 domain cat. #06-466 from Upstate Biotechnology is used for the ELISA. For detection of Bcr-Abl phosphorylation, the anti-phosphotyrosine antibody Ab PY20, labelled with alkaline phosphatase ([…]) from ZYMED (cat. #03-7722) is used. […]

Compound	melting point [°C]	IC50 (c-Abl (His-cAbl)) [µM]	other results
Cc1cn(-c2cc(NC(=O)c3cccc4cc(Oc5cc(NC(=O)C6CC6)ncn5)ccc34)cc(C(F)(F)F)c2)cn1 [Example 20, 6-[[6-(Cyclopropanecarbonyl)amino-pyrimidin-4-yl]oxy]-naphthalene-1-carboxylic acid [3-(4-methyl-imidazol-1-yl)-5-trifluoromethyl-phenyl]-amide]	216 to 220		
Cc1cn(-c2cc(NC(=O)c3cccc4cc(Oc5ccnc(Nc6nccs6)c5)ccc34)cc(C(F)(F)F)c2)cn1 [Example 22, 6-[[N-[2-(4-methyl-2-thiazolyl)amino]-pyridin-4-yl]oxy]-naphthalene-1-carboxylic acid [3-(4-methyl-1H-imidazol-1-yl)-5-(trifluoromethylphenyl)]amide]	277 to 282		
Cc1cn(-c2cc(NC(=O)c3cccc4cc(Oc5cc(N)ncn5)ccc34)cc(C(F)(F)F)c2)cn1 [Example 21, 6-[[6-Amino-pyrimidin-4-yl]oxy]-naphthalene-1-carboxylic acid [3-(4-methyl-imidazol-1-yl)-5-trifluoromethyl-phenyl]-amide]	> 148		
Cc1cn(-c2cc(NC(=O)c3cccc4cc(Oc5ccnc(NC(=O)N(C)C)c5)ccc34)cc(C(F)(F)F)c2)cn1 [Example 5]	> 138	< 0.005	
CN1C2CCCC1CN(Cc1ccc(NC(=O)c3cccc4cc(Oc5ccnc(NC(=O)C6CC6)c5)ccc34)cc1C(F)(F)F)C2 [Example 11]		< 0.005	
CN1CCN(Cc2ccc(NC(=O)c3cccc4cc(Oc5ccnc(NC(=O)C6CC6)c5)ccc34)cc2C(F)(F)F)CC1 [Example 8, 6-[[2-(Cyclopropylcarbonyl)amino-pyridin-4-yl]oxy]-naphthalene-1-carboxylic acid [4-[(4-methyl-1-piperazinyl)methyl]-3-trifluoromethyl-phenyl]amide]		< 0.005	
Cc1cn(-c2cc(NC(=O)c3cccc4cc(Oc5ccnc(Nc6ccccn6)c5)ccc34)cc(C(F)(F)F)c2)cn1 [Example 6, 6-[[2-[(2-Pyridinyl)amino]-4-pyridinyl]oxy]-naphthalene-1-carboxylic acid [3-(4-methyl-1H-imidazol-1-yl)-5-(trifluoromethylphenyl)]amide]	204 to 206		IC50 [1]: 0.047 to 0.049 µM
Cc1cn(-c2cc(NC(=O)c3cccc4cc(Oc5ccnc(NC(=O)C(C)(C)C)c5)ccc34)cc(C(F)(F)F)c2)cn1 [Example 3]	> 120		
Cc1cn(-c2cc(NC(=O)c3cccc4cc(Oc5ccnc(NC(=O)C6CC6)c5)ccc34)cc(C(F)(F)F)c2)cn1 [Example 2, 6-[[2-(Cyclopropylcarbonyl)amino-pyridin-4-yl]oxy]-naphthalene-1-carboxylic acid [3-(4-methyl-1H-imidazol-1-yl)-5-(trifluoromethylphenyl)]amide]	242 to 244		IC50 (Bcr-Abl): 0.021 to 0.179 µM
Cc1cn(-c2cc(NC(=O)c3cccc4cc(Oc5ccnc(NC(=O)C(C)(C)O)c5)ccc34)cc(C(F)(F)F)c2)cn1 [Example 4, 6-[[2-(2-Hydroxy-2-methylpropylcarbonyl)amino-pyridin-4-yl]oxy]-naphthalene-1-carboxylic acid [3-(4-methyl-1H-imidazol-1-yl)-5-(trifluoromethylphenyl)]amide]	248 to 251		
CC(=O)Nc1cc(Oc2ccc3c(C(=O)Nc4ccc(CN5CCN(C)CC5)c(C(F)(F)F)c4)cccc3c2)ccn1 [Example 7, 6-[[2-(Acetylamino)-pyridin-4-yl]oxy]-naphthalene-1-carboxylic acid [4-[(4-methyl-1-piperazinyl)methyl]-3-trifluoromethyl-phenyl]amide]	112 to 114	< 0.005	
CC(=O)Nc1cc(Oc2ccc3c(C(=O)Nc4cc(-n5cnc(C)c5)cc(C(F)(F)F)c4)cccc3c2)ncn1 [Example 19, 6-[[6-(Acetylamino)-pyrimidin-4-yl]oxy]-naphthalene-1-carboxylic acid [3-(4-methyl-imidazol-1-yl)-5-trifluoromethyl-phenyl]-amide]		< 0.005	
Cc1cn(-c2cc(NC(=O)c3cccc4cc(Oc5ccnc(NC(=O)[C@@H]6CCCN6)c5)ccc34)cc(C(F)(F)F)c2)cn1 [Example 25, 6-[[2-[(2S)-2-Pyrrolidinecarbonyl]amino-pyridin-4-yl]oxy]-naphthalene-1-carboxylic acid [3-(4-methyl-1H-imidazol-1-yl)-5-(trifluoromethylphenyl)]amide]			IC50 [1]: 0.065 to 0.068 µM
Cc1ncc(-c2cc(NC(=O)c3cccc4cc(Oc5ccnc(NC(=O)C6CC6)c5)ccc34)cc(C(F)(F)F)c2)[nH]1 [Example 15]			IC50 [1]: 0.036 to 0.057 µM
CC(=O)Nc1cc(Oc2ccc3c(C(=O)Nc4cc(-n5cnc(C)c5)cc(C(F)(F)F)c4)cccc3c2)ccn1 [Example 1, 6-[[2-(Acetylamino)-pyridin-4-yl]oxy]-naphthalene-1-carboxylic acid [3-(4-methyl-1H-imidazol-1-yl)-5-(trifluoromethylphenyl)]amide]		< 0.005	
